Experimental data from article PMC11589570, “Critical assessment of LC3/GABARAP ligands used for degrader development and ligandability of LC3/GABARAP binding pockets” (Nature Communications, 2024).
Where two headings read alike, the source gives them in different places.

Tests used:
[1] = tested on: RPE-1 GFP-LC3B-RPF-LC3∆G reporter cell line; experiment: Autophagy flux assay; format: cell-based; details: rebuttal letter
Description: LC3/GABARAP in vitro, but no attempts are made to replicate the previously reported cellular activity of these compounds. It would be beneficial to know whether these compounds have any effect on autophagy in the authors’ hands, and therefore could act by alternative mechanisms, or whether they […]
Response: We were very concerned that the ligands used for ATTEC development might induce general toxicity in cell lines, as they are based on drugs used in oncology (such as the kinesin inhibitor 10O5) and the isoxazole scaffold often used in the development of multi-targeted kinase inhibitors. However, we have now investigated compounds 1-4 in autophagy flux assays using the RPE-1 GFP-LC3B-RPF-LC3∆G reporter cell line (single clone) as […]
reported in [PMID:37558952].
(RR_Figure 6). The authors of the first manuscript reporting these ligands [PMID: 31666698]
However, due to the potent activity of 8F20 on KIF11, which will have profound effects on cell trafficking and growth, and DCAF11 (AN1, [PMID: 38036533]), we find it unlikely that the effects on autophagy are due to LC3/GABARAP modulation. Due to the lack of target (LC3/GABARAP) binding in vitro and the […]
of this review but have excluded the data in the manuscript.
RR_figure 5: Autophagy flux measurement for 10O5 and AN2. No induction of autophagy or effects (right panels, assessed by Incucyte (Sartorius) life cell imaging) on cell growth was […]
RR_figure 6: Autophagy flux measurement for 8F20 and AN1 show changes in autophagy flux […]
It is not clear how many biological replicates have been performed. For example, the figure legends […]

[2] = molecular target: GABARAPL2 (Homo sapiens, UniProt P60520); details: GABARAPL2:ligand molar ratio 1:2
Chain of GABARAPL2 (P60520 whole entry): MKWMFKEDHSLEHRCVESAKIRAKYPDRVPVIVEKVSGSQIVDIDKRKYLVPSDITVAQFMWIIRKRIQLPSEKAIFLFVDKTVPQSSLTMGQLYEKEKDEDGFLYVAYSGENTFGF

`O=C1Nc2ccc(Br)cc2C1=Cc1cc(O)c(O)c(Br)c1` [compound 1] was tested, and the “autophagy induction (autophagy flux)” value [1] was “significant autophagy activation”, the “effects on cell growth (Incucyte life cell imaging)” value [1] was “profound effects on cell growth” and the CSP ([2]; residue A19) was 0.023 ppm. It also gave a CSP ([2]; residue A23) of 0.017 ppm, a CSP ([2]; residue A58) of 0.006 ppm and a CSP ([2]; residue A75) of 0.00152 ppm. It also gave a CSP ([2]; residue A108) of 0.001 ppm, a CSP ([2]; residue C15) of 0.010 ppm and a CSP ([2]; residue D8) of 0.011 ppm. It also gave a CSP ([2]; residue D43) of 0.002 ppm, a CSP ([2]; residue D54) of 0.011 ppm and a CSP ([2]; residue D81) of 0.00158 ppm. It also gave a CSP ([2]; residue D100) of 0.002 ppm, a CSP ([2]; residue D102) of 0.015 ppm and a CSP ([2]; residue E7) of 0.00272 ppm. The CSP ([2]; residue E12) was 0.006 ppm, the CSP ([2]; residue E17) was 0.011 ppm and the CSP ([2]; residue E34) was 0.012 ppm. The CSP ([2]; residue E96) was 0.00425 ppm, the CSP ([2]; residue E98) was 0.005 ppm and the CSP ([2]; residue E101) was 0.005 ppm. For the same compound, the CSP ([2]; residue F5, estimated) was 0.010 ppm, the CSP ([2]; residue F60) was 0.006 ppm and the CSP ([2]; residue F77) was 0.00374 ppm. It also gave a CSP ([2]; residue F104) of 0.019 ppm, a CSP ([2]; residue F115) of 0.011 ppm and a CSP ([2]; residue G38) of 0.024 ppm. For the same compound, the CSP ([2]; residue G103) was 0.009 ppm, the CSP ([2]; residue G111) was 0.00641 ppm and the CSP ([2]; residue H9) was 0.012 ppm. It also gave a CSP ([2]; residue H13) of 0.004 ppm, a CSP ([2]; residue I21) of 0.013 ppm and a CSP ([2]; residue I32) of 0.024 ppm. It also gave a CSP ([2]; residue I41) of 0.011 ppm, a CSP ([2]; residue I44) of 0.005 ppm and a CSP ([2]; residue I55) of 0.003 ppm. It also gave a CSP ([2]; residue I63) of 0.00457 ppm, a CSP ([2]; residue I64) of 0.007 ppm and a CSP ([2]; residue I76) of 0.00122 ppm. It also gave a CSP ([2]; residue K2) of 0.007 ppm, a CSP ([2]; residue K6) of 0.010 ppm and a CSP ([2]; residue K20) of 0.015 ppm. The CSP ([2]; residue K24) was 0.012 ppm, the CSP ([2]; residue K35) was 0.010 ppm and the CSP ([2]; residue K46, estimated) was 0.005 ppm. It also gave a CSP ([2]; residue K48) of 0.050 ppm, a CSP ([2]; residue K66) of 0.004 ppm and a CSP ([2]; residue K82, estimated) of 0.002 ppm. The CSP ([2]; residue K97) was 0.005 ppm, the CSP ([2]; residue K99) was 0.004 ppm and the CSP ([2]; residue L11) was 0.00364 ppm. The CSP ([2]; residue L50) was 0.025 ppm, the CSP ([2]; residue L94) was 0.011 ppm and the CSP ([2]; residue L105) was 0.027 ppm. It also gave a CSP ([2]; residue M1) of 0.00659 ppm, a CSP ([2]; residue M4, estimated) of 0.003 ppm and a CSP ([2]; residue M61) of 0.00531 ppm. For the same compound, the CSP ([2]; residue M91) was 0.003 ppm, the CSP ([2]; residue P26, estimated) was 0.020 ppm and the CSP ([2]; residue P30, estimated) was 0.040 ppm. For the same compound, the CSP ([2]; residue P52, estimated) was 0.020 ppm, the CSP ([2]; residue P71, estimated) was 0.002 ppm and the CSP ([2]; residue P85, estimated) was 0.002 ppm. For the same compound, the CSP ([2]; residue Q40) was 0.000721 ppm, the CSP ([2]; residue Q59) was 0.00467 ppm and the CSP ([2]; residue Q86) was 0.003 ppm. The CSP ([2]; residue R14) was 0.018 ppm, the CSP ([2]; residue R22) was 0.020 ppm and the CSP ([2]; residue R28) was 0.016 ppm. It also gave a CSP ([2]; residue R47, estimated) of 0.020 ppm, a CSP ([2]; residue R65) of 0.00158 ppm and a CSP ([2]; residue R67) of 0.006 ppm. The CSP ([2]; residue S10) was 0.010 ppm, the CSP ([2]; residue S18) was 0.00255 ppm and the CSP ([2]; residue S37) was 0.048 ppm. It also gave a CSP ([2]; residue S39) of 0.003 ppm, a CSP ([2]; residue S53) of 0.014 ppm and a CSP ([2]; residue S72) of 0.00173 ppm. For the same compound, the CSP ([2]; residue S87) was 0.000721 ppm, the CSP ([2]; residue S88) was 0.00152 ppm and the CSP ([2]; residue S110) was 0.00127 ppm. For the same compound, the CSP ([2]; residue T56) was 0.00374 ppm, the CSP ([2]; residue T90) was 0.0011 ppm and the CSP ([2]; residue V16) was 0.014 ppm. The CSP ([2]; residue V29) was 0.043 ppm, the CSP ([2]; residue V31) was 0.038 ppm and the CSP ([2]; residue V33) was 0.013 ppm. The CSP ([2]; residue V42) was 0.00279 ppm, the CSP ([2]; residue V51) was 0.046 ppm and the CSP ([2]; residue V57) was 0.004 ppm. For the same compound, the CSP ([2]; residue V80) was 0.008 ppm, the CSP ([2]; residue V84) was 0.00263 ppm and the CSP ([2]; residue V107) was 0.006 ppm. For the same compound, the CSP ([2]; residue W62) was 0.015 ppm, the CSP ([2]; residue Y25) was 0.034 ppm and the CSP ([2]; residue Y49) was 0.064 ppm. It also gave a CSP ([2]; residue Y106) of 0.023 ppm and a CSP ([2]; residue Y109) of 0.009 ppm.
